Data reported in the NIST ThermoML archive (doi:10.1016/j.jct.2004.12.002).
Numbers after ± are expanded uncertainties.

Assays:
[1] = 101 kPa, Liquid
[2] = xn = mol fraction of the nth substance listed; conditions: 101 kPa, Liquid

CCCCCCC [heptane]
mass density ([1]; 293.22 K): 683.82 ± 0.65 kg/m3
mass density ([1]; 298.16 K): 679.75 ± 0.65 kg/m3
mass density ([1]; 303.17 K): 675.51 ± 0.66 kg/m3
mass density ([1]; 308.17 K): 671.21 ± 0.67 kg/m3
mass density ([1]; 313.17 K): 666.97 ± 0.67 kg/m3
mass density ([1]; 318.18 K): 662.67 ± 0.68 kg/m3

CCO [ethanol] + CCCCCCC
mass density ([2]; 293.22 K, x1 = 1): 789.54 ± 0.47 kg/m3
mass density ([2]; 298.16 K, x1 = 1): 785.46 ± 0.47 kg/m3
mass density ([2]; 303.17 K, x1 = 1): 781.05 ± 0.48 kg/m3
mass density ([2]; 308.17 K, x1 = 1): 776.75 ± 0.49 kg/m3
mass density ([2]; 313.17 K, x1 = 1): 772.42 ± 0.49 kg/m3
mass density ([2]; 318.18 K, x1 = 1): 768 ± 0.5 kg/m3

CCO [ethanol]
mass density ([1]; 293.22 K): 789.54 ± 0.47 kg/m3
mass density ([1]; 298.16 K): 785.46 ± 0.47 kg/m3
mass density ([1]; 303.17 K): 781.05 ± 0.48 kg/m3
mass density ([1]; 308.17 K): 776.75 ± 0.49 kg/m3
mass density ([1]; 313.17 K): 772.42 ± 0.49 kg/m3
mass density ([1]; 318.18 K): 768 ± 0.5 kg/m3

CCCCCCC [heptane] + CCO
mass density ([2]; 293.21 K, x2 = 0.2043): 691.74 ± 0.63 kg/m3
mass density ([2]; 293.21 K, x2 = 0.3044): 697.14 ± 0.62 kg/m3
mass density ([2]; 293.21 K, x2 = 0.3971): 703.04 ± 0.61 kg/m3
mass density ([2]; 293.21 K, x2 = 0.4975): 710.62 ± 0.6 kg/m3
mass density ([2]; 293.21 K, x2 = 0.6954): 730.78 ± 0.57 kg/m3
mass density ([2]; 293.21 K, x2 = 0.8023): 745.94 ± 0.54 kg/m3
mass density ([2]; 293.21 K, x2 = 0.9009): 764.36 ± 0.51 kg/m3
mass density ([2]; 293.22 K, x2 = 0): 683.82 ± 0.65 kg/m3
mass density ([2]; 293.22 K, x2 = 0.0237): 684.36 ± 0.65 kg/m3
mass density ([2]; 293.22 K, x2 = 0.0507): 685.26 ± 0.64 kg/m3
mass density ([2]; 293.22 K, x2 = 0.1041): 687.27 ± 0.64 kg/m3
mass density ([2]; 293.22 K, x2 = 0.6043): 720.54 ± 0.58 kg/m3
mass density ([2]; 293.22 K, x2 = 0.9531): 776.53 ± 0.49 kg/m3
mass density ([2]; 298.16 K, x2 = 0): 679.75 ± 0.65 kg/m3
mass density ([2]; 298.17 K, x2 = 0.0237): 680.19 ± 0.65 kg/m3
mass density ([2]; 298.17 K, x2 = 0.0507): 681.04 ± 0.65 kg/m3
mass density ([2]; 298.17 K, x2 = 0.1041): 683.06 ± 0.65 kg/m3
mass density ([2]; 298.17 K, x2 = 0.2043): 687.5 ± 0.64 kg/m3
mass density ([2]; 298.17 K, x2 = 0.3044): 692.93 ± 0.63 kg/m3
mass density ([2]; 298.17 K, x2 = 0.3971): 698.76 ± 0.62 kg/m3
mass density ([2]; 298.17 K, x2 = 0.4975): 706.35 ± 0.6 kg/m3
mass density ([2]; 298.17 K, x2 = 0.6043): 716.27 ± 0.59 kg/m3
mass density ([2]; 298.17 K, x2 = 0.6954): 726.58 ± 0.57 kg/m3
mass density ([2]; 298.17 K, x2 = 0.8023): 741.81 ± 0.54 kg/m3
mass density ([2]; 298.17 K, x2 = 0.9009): 760.18 ± 0.51 kg/m3
mass density ([2]; 298.17 K, x2 = 0.9531): 772.37 ± 0.49 kg/m3
mass density ([2]; 303.17 K, x2 = 0): 675.51 ± 0.66 kg/m3
mass density ([2]; 303.17 K, x2 = 0.0237): 675.81 ± 0.66 kg/m3
mass density ([2]; 303.17 K, x2 = 0.0507): 676.65 ± 0.66 kg/m3
mass density ([2]; 303.17 K, x2 = 0.1041): 678.74 ± 0.65 kg/m3
mass density ([2]; 303.17 K, x2 = 0.2043): 683.12 ± 0.64 kg/m3
mass density ([2]; 303.17 K, x2 = 0.3044): 688.45 ± 0.63 kg/m3
mass density ([2]; 303.17 K, x2 = 0.3971): 694.32 ± 0.62 kg/m3
mass density ([2]; 303.17 K, x2 = 0.4975): 701.88 ± 0.61 kg/m3
mass density ([2]; 303.17 K, x2 = 0.6043): 711.77 ± 0.59 kg/m3
mass density ([2]; 303.17 K, x2 = 0.6954): 722.09 ± 0.58 kg/m3
mass density ([2]; 303.17 K, x2 = 0.8023): 737.39 ± 0.55 kg/m3
mass density ([2]; 303.17 K, x2 = 0.9009): 755.87 ± 0.52 kg/m3
mass density ([2]; 303.17 K, x2 = 0.9531): 768.14 ± 0.5 kg/m3
mass density ([2]; 308.17 K, x2 = 0): 671.21 ± 0.67 kg/m3
mass density ([2]; 308.17 K, x2 = 0.0237): 671.53 ± 0.66 kg/m3
mass density ([2]; 308.17 K, x2 = 0.0507): 672.35 ± 0.66 kg/m3
mass density ([2]; 308.17 K, x2 = 0.1041): 674.32 ± 0.66 kg/m3
mass density ([2]; 308.17 K, x2 = 0.2043): 678.62 ± 0.65 kg/m3
mass density ([2]; 308.17 K, x2 = 0.3044): 683.9 ± 0.64 kg/m3
mass density ([2]; 308.17 K, x2 = 0.3971): 689.82 ± 0.63 kg/m3
mass density ([2]; 308.17 K, x2 = 0.4975): 697.41 ± 0.62 kg/m3
mass density ([2]; 308.17 K, x2 = 0.6043): 707.35 ± 0.6 kg/m3
mass density ([2]; 308.17 K, x2 = 0.6954): 717.65 ± 0.58 kg/m3
mass density ([2]; 308.17 K, x2 = 0.8023): 733.18 ± 0.56 kg/m3
mass density ([2]; 308.17 K, x2 = 0.9009): 751.57 ± 0.53 kg/m3
mass density ([2]; 308.17 K, x2 = 0.9531): 763.83 ± 0.51 kg/m3
mass density ([2]; 313.17 K, x2 = 0): 666.97 ± 0.67 kg/m3
mass density ([2]; 313.17 K, x2 = 0.0237): 667.19 ± 0.67 kg/m3
mass density ([2]; 313.17 K, x2 = 0.0507): 667.92 ± 0.67 kg/m3
mass density ([2]; 313.17 K, x2 = 0.1041): 669.78 ± 0.67 kg/m3
mass density ([2]; 313.17 K, x2 = 0.2043): 674.12 ± 0.66 kg/m3
mass density ([2]; 313.17 K, x2 = 0.3044): 679.46 ± 0.65 kg/m3
mass density ([2]; 313.17 K, x2 = 0.3971): 685.29 ± 0.64 kg/m3
mass density ([2]; 313.17 K, x2 = 0.4975): 692.92 ± 0.62 kg/m3
mass density ([2]; 313.17 K, x2 = 0.6043): 702.8 ± 0.61 kg/m3
mass density ([2]; 313.17 K, x2 = 0.6954): 713.21 ± 0.59 kg/m3
mass density ([2]; 313.17 K, x2 = 0.8023): 728.57 ± 0.57 kg/m3
mass density ([2]; 313.17 K, x2 = 0.9009): 747.21 ± 0.53 kg/m3
mass density ([2]; 313.17 K, x2 = 0.9531): 759.41 ± 0.51 kg/m3
mass density ([2]; 318.17 K, x2 = 0.0237): 663.59 ± 0.68 kg/m3
mass density ([2]; 318.17 K, x2 = 0.1041): 665.46 ± 0.67 kg/m3
mass density ([2]; 318.17 K, x2 = 0.2043): 669.66 ± 0.66 kg/m3
mass density ([2]; 318.17 K, x2 = 0.3044): 674.88 ± 0.65 kg/m3
mass density ([2]; 318.17 K, x2 = 0.3971): 680.74 ± 0.64 kg/m3
mass density ([2]; 318.17 K, x2 = 0.4975): 688.34 ± 0.63 kg/m3
mass density ([2]; 318.17 K, x2 = 0.6043): 698.25 ± 0.61 kg/m3
mass density ([2]; 318.17 K, x2 = 0.6954): 708.71 ± 0.59 kg/m3
mass density ([2]; 318.17 K, x2 = 0.8023): 724.14 ± 0.57 kg/m3
mass density ([2]; 318.17 K, x2 = 0.9009): 742.91 ± 0.54 kg/m3
mass density ([2]; 318.18 K, x2 = 0): 662.67 ± 0.68 kg/m3
mass density ([2]; 318.18 K, x2 = 0.0507): 662.82 ± 0.68 kg/m3
mass density ([2]; 318.18 K, x2 = 0.9531): 754.95 ± 0.52 kg/m3
